Measurements reported in PMC7344628, “Bone-Seeking Matrix Metalloproteinase Inhibitors for the Treatment of Skeletal Malignancy” (Pharmaceuticals, 2020).
Where two headings read alike, the source gives them in different places. Each block holds one molecule with its values, some of them ahead of it.

Experiments:
Assay in all cases: fluorogenic peptide substrate assay
Type in all cases: biochemical
MMP-9 = target: T1, MMP-9 (Homo sapiens, UniProt P14780)
T1 construct: gene MMP9
Description: fluorogenic peptide substrate assay on MMP-9

MMP-8 = target: T2, MMP-8 (Homo sapiens, UniProt P22894)
T2 construct: gene MMP8
Description: fluorogenic peptide substrate assay on MMP-8

MMP-2 = target: T3, MMP-2 (Homo sapiens, UniProt P08253)
T3 construct: gene MMP2
Description: fluorogenic peptide substrate assay on MMP-2

MMP-13 = target: T4, MMP-13 (Homo sapiens, UniProt P45452)
T4 construct: gene MMP13
Description: fluorogenic peptide substrate assay on MMP-13

T3 sequence (P08253 110-446 limits assumed): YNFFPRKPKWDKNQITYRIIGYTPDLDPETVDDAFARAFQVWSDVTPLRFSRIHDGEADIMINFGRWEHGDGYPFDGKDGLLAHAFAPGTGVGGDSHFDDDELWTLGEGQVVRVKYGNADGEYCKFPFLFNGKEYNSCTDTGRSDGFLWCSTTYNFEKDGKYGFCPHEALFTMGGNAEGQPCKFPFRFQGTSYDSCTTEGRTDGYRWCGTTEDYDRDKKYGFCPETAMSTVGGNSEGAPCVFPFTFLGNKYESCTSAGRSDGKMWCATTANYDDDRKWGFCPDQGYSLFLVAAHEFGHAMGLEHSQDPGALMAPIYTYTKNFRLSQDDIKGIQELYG
T1 sequence (P14780 107-444 limits assumed): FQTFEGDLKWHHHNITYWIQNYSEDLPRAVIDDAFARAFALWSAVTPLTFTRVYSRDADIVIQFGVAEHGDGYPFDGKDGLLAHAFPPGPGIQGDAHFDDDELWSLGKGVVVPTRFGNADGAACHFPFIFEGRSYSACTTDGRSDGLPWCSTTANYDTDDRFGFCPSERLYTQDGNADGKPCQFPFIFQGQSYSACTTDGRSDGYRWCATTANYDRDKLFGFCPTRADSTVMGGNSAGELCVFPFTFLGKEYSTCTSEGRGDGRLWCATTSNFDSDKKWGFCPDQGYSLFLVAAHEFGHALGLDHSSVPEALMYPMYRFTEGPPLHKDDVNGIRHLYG
T2 sequence (P22894 100-262 limits assumed): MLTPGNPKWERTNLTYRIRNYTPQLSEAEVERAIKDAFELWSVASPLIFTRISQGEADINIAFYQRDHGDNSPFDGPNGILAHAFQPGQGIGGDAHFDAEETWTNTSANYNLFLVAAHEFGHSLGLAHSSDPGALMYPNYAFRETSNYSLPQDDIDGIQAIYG

IC50 (MMP-9): 0.088 ± 0.012 µM
IC50 (MMP-8): 0.66 ± 0.13 µM
IC50 (MMP-2): 0.67 ± 0.16 µM
IC50 (MMP-13): 0.14 ± 0.05 µM
SMILES: O=C(Nc1ccc(S(=O)(=O)NC(P(=O)(O)O)P(=O)(O)O)cc1)c1ccc(Br)cc1 [compound 9, (4-(4-bromobenzamido)phenylsulfonylamino)methyl-1,1-bisphosphonic acid]

IC50 (MMP-9): > 100 µM
IC50 (MMP-8): 17 ± 4 µM
IC50 (MMP-2): 4.2 ± 1.3 µM
IC50 (MMP-13): 15.9 ± 1.9 µM
SMILES: O=C(Nc1ccc(S(=O)(=O)NC(P(=O)(O)O)P(=O)(O)O)cc1)c1cccc(Br)c1 [compound 10, (4-(3-bromobenzamido)phenylsulfonylamino)methyl-1,1-bisphosphonic acid]

IC50 (MMP-9): 0.43 ± 0.1 µM
IC50 (MMP-8): 0.46 ± 0.11 µM
IC50 (MMP-2): 1.7 ± 0.3 µM
IC50 (MMP-13): 0.61 ± 0.16 µM
SMILES: O=C(Nc1ccc(S(=O)(=O)NC(P(=O)(O)O)P(=O)(O)O)cc1)c1ccc([N+](=O)[O-])cc1 [compound 11, (4-(4-nitrobenzamido)phenylsulfonylamino)methyl-1,1-bisphosphonic acid]

IC50 (MMP-9): 21.5 ± 0.7 µM
IC50 (MMP-8): 25 ± 12 µM
IC50 (MMP-2): 2.7 ± 1 µM
IC50 (MMP-13): 12 ± 5 µM
SMILES: O=C(Nc1ccc(S(=O)(=O)NC(P(=O)(O)O)P(=O)(O)O)cc1)c1cccc2ccccc12 [compound 12, (4-(1-naphthamido)phenylsulfonylamino)methyl-1,1-bisphosphonic acid]

IC50 (MMP-9): 76 ± 8 µM
IC50 (MMP-8): 16.6 ± 1.9 µM
IC50 (MMP-2): 3.9 ± 0.5 µM
IC50 (MMP-13): 9.3 ± 0.5 µM
SMILES: O=C(Nc1ccc(S(=O)(=O)NC(P(=O)(O)O)P(=O)(O)O)cc1)c1ccc2ccccc2c1 [compound 13, (4-(2-naphthamido)phenylsulfonylamino)methyl-1,1-bisphosphonic acid]

The next lines start with the molecule.

SMILES: O=P(O)(O)C(NS(=O)(=O)c1ccc(-c2ccccc2)cc1)P(=O)(O)O [ML 115]
IC50 (MMP-9): > 100 µM
IC50 (MMP-8): 0.4 ± 0.03 µM
IC50 (MMP-2; OmniMMP 2.5 µM or OmniMMP RED 1 µM, pH 7.5, 1 mM CaCl2, 1 µM ZnCl2, 15 min preincubation, 37 °C): 0.14 ± 0.04 µM
IC50 (MMP-13): 0.74 ± 0.06 µM

SMILES: Nc1ccc(S(=O)(=O)NC(P(=O)(O)O)P(=O)(O)O)cc1 [compound 1, (4-aminophenylsulfonylamino)methyl-1,1-bisphosphonic acid]
IC50 (MMP-9): > 100 µM
IC50 (MMP-8): 66 ± 8 µM
IC50 (MMP-2): 19 ± 3 µM
IC50 (MMP-13): 68.9 ± 10.2 µM

SMILES: O=P(O)(O)C(NS(=O)(=O)c1ccc2ccccc2c1)P(=O)(O)O [compound 2, (2-naphthylsulfonylamino)methyl-1,1-bisphosphonic acid]
IC50 (MMP-9): > 100 µM
IC50 (MMP-8): 26.8 ± 0.9 µM
IC50 (MMP-2): 18.7 ± 0.8 µM
IC50 (MMP-13): 9.6 ± 0.4 µM

SMILES: O=P(O)(O)C(NS(=O)(=O)c1cccc2ccccc12)P(=O)(O)O [compound 3, (1-naphthylsulfonylamino)methyl-1,1-bisphosphonic acid]
IC50 (MMP-9): 57 ± 2 µM
IC50 (MMP-8): 31.3 ± 1.2 µM
IC50 (MMP-2): 15.2 ± 0.5 µM
IC50 (MMP-13): 14.6 ± 0.8 µM

SMILES: O=C(Nc1ccccc1)Nc1ccc(S(=O)(=O)NC(P(=O)(O)O)P(=O)(O)O)cc1 [compound 4, (4-(3-phenylureido)phenylsulfonylamino)methyl-1,1-bisphosphonic acid]
IC50 (MMP-9): 13.8 ± 0.6 µM
IC50 (MMP-8): 48 ± 15 µM
IC50 (MMP-2): 2.8 ± 0.6 µM
IC50 (MMP-13): 15 ± 6 µM

SMILES: O=C1c2ccccc2C(=O)N1c1ccc(S(=O)(=O)NC(P(=O)(O)O)P(=O)(O)O)cc1 [compound 5, (4-(1,3-dioxoisoindolin-2-yl)phenylsulfonylamino)methyl-1,1-bisphosphonic acid]
IC50 (MMP-9): 15 ± 6 µM
IC50 (MMP-8): 45 ± 5 µM
IC50 (MMP-2): 5.3 ± 0.4 µM
IC50 (MMP-13): 18.1 ± 1.5 µM

SMILES: O=C(Nc1ccc(S(=O)(=O)NC(P(=O)(O)O)P(=O)(O)O)cc1)c1ccccc1 [compound 6, (4-benzamidophenylsulfonylamino)methyl-1,1-bisphosphonic acid]
IC50 (MMP-9): 2.3 ± 0.1 µM
IC50 (MMP-8): 1.88 ± 0.03 µM
IC50 (MMP-2): 2.75 ± 0.35 µM
IC50 (MMP-13): 2 ± 0.7 µM

SMILES: O=C(Nc1cccc(S(=O)(=O)NC(P(=O)(O)O)P(=O)(O)O)c1)c1ccccc1 [compound 7, (3-benzamidophenylsulfonylamino)methyl-1,1-bisphosphonic acid]
IC50 (MMP-9): 50 ± 11 µM
IC50 (MMP-8): 79 ± 8 µM
IC50 (MMP-2): 9 ± 0.8 µM
IC50 (MMP-13): 28 ± 4 µM

SMILES: Cc1ccc(C(=O)Nc2ccc(S(=O)(=O)NC(P(=O)(O)O)P(=O)(O)O)cc2)cc1 [compound 8, (4-(4-methylbenzamido)phenylsulfonylamino)methyl-1,1-bisphosphonic acid]
IC50 (MMP-9): 0.67 ± 0.25 µM
IC50 (MMP-8): 0.78 ± 0.18 µM
IC50 (MMP-2): 0.958 ± 0.018 µM
IC50 (MMP-13): 3.3 ± 0.7 µM
